Laboratory results as given in paper PMC8476002, “Bergamottin a CYP3A inhibitor found in grapefruit juice inhibits prostate cancer cell growth by downregulating androgen receptor signaling and promoting G0/G1 cell cycle block and apoptosis” (PLoS ONE, 2021).

Key:
Type in all cases: cell-based, human
[1] = system: cell cycle regulating proteins in MDAPCa2b cells; test: Western blot of cell cycle regulating proteins, MDAPCa2b; settings: for CDK2, normalized fold change after GAPDH calibration / CDK4, normalized fold change after GAPDH calibration / CDK6, normalized fold change after GAPDH calibration / Cyclin A, normalized fold change after GAPDH calibration / Cyclin B1, normalized fold change after GAPDH calibration / Cyclin D1, normalized fold change after GAPDH calibration / Cyclin D3, normalized fold change after GAPDH calibration / Cyclin E, normalized fold change after GAPDH calibration / Myt 1, normalized fold change after GAPDH calibration / P-Wee1, normalized fold change after GAPDH calibration / P-cdc2, normalized fold change after GAPDH calibration / P-histone H3, normalized fold change after GAPDH calibration / p21, normalized fold change after GAPDH calibration / p27, normalized fold change after GAPDH calibration: 48 hrs., 0 μM = 100
Description: Cells were plated at 25–30% confluence when maintained in complete media. When the cells required DHT tretment and media replacement to charcoal stripped serum media (CSSM) they were plated at 35–40% confluence. Bergamottin is dissolved in DMSO (vehicle control) and the amount of DMSO at each treatment group was kept constant. After the completion of the treatment cells were washed in phosphate buffer (PBS) containing 2mMEDTA and 2mM EGTA and lysed in RIPA buffer (50 mM TRIS, 150 mM NaCl, 1% NP40, 0.5% sodium deoxycholate, 0.1% SDS, 2mM EDTA, 2mM EGTA) supplemented with protease and phosphatase inhibitors for total protein isolation. Protein estimation was performed using micro BCA assay and equal protein amponts were loaded on SDS-PAGE gels for western analysis. GAPDH was used as an internal control for total protein. Infrared fluorescent-labeled secondary antibodies were used for detection using Odyssey CLx. The bands were quantified using Odyssey software, which calculates pixel density and automatically takes an area adjacent to each band for background corrections. […]

MDAPCa2b cells = test: TUNEL apoptosis detection assay, MDAPCa2b; settings: 10μM, 4 days
Description: To detect apoptosis in the cells after bergamottin treatment In Situ cell death detection kit from Sigma-Aldrich (St. Louis, MO) was used. This apoptosis detection kit fluorescently labels the single and double-stranded DNA breaks caused due to apoptosis using terminal deoxynucleotidyl transferase (TUNEL-reaction). The cells were plated in poly- D- lysine coated 35 mm Glass bottom dish (Cellvis catalog# D35C4-20-1.5-N), treated with bergamottin for the specified time, and dosage and then stained with the kit reagents. The kit recommended protocol was followed. After the staining, the confocal microscope was used to procure images of the cells. The TUNEL assay preferentially labels apoptosis in comparison to necrosis and positive apoptosis is recognized when cells incorporate fluorescent labelled nucleotide (Ex 450 to 500nm and Em 515 to 565-green).

PSA in MDAPCa2b cells = test: Western blotting of PSA, MDAPCa2b; settings: 10μM, 96 hours
Description: (§1) Cells were plated at 25–30% confluence when maintained in complete media. When the cells required DHT tretment and media replacement to charcoal stripped serum media (CSSM) they were plated at 35–40% confluence. Bergamottin is dissolved in DMSO (vehicle control) and the amount of DMSO at each treatment group was kept constant. After the completion of the treatment cells were washed in phosphate buffer (PBS) containing 2mMEDTA and 2mM EGTA and lysed in RIPA buffer (50 mM TRIS, 150 mM NaCl, 1% NP40, 0.5% sodium deoxycholate, 0.1% SDS, 2mM EDTA, 2mM EGTA) supplemented with protease and phosphatase inhibitors for total protein isolation. Protein estimation was performed using micro BCA assay and equal protein amponts were loaded on SDS-PAGE gels for western analysis. GAPDH was used as an internal control for total protein. Infrared fluorescent-labeled secondary antibodies were used for detection using Odyssey CLx. The bands were quantified using Odyssey software, which calculates pixel density and automatically takes an area adjacent to each band for background corrections.

LNCaP cells = test: Clonogenic assay, LNCaP; settings: 5μM and 10μM, 3 weeks
Description: For clonogenic assay, cells were plated in 6 well plates (10,000 cells) for 48 h and then treated with indicated amounts of bergamottin and vehicle control (DMSO). After 3 weeks, the colonies were fixed, stained (0.75% crystal violet, 50% ethanol and 1.75% formaldehyde) and counted. The assay was repeated three times.

PSA in LNCaP cells = test: Western blotting of PSA, LNCaP; settings: 10μM, 96 hours
Description: as §1

[2] = system: AR nuclear localization in LNCaP cells; test: Confocal microscopy of AR nuclear localization, LNCaP; settings: bergamottin 10μM, versus DMSO
Description: Cells were seeded into 35 mm Glass bottom dish (Cellvis catalog# D35C4-20-1.5-N) in complete media; media was changed to CSSM prior to DHT treatment. The cells were fixed in 4% paraformaldehyde for 20 minutes and permeabilized using permeabilizing buffer (0.2% Tween 20 in PBS) for 5 minutes. Cells were blocked using 10% goat serum diluted in permeabilizing buffer with 1% BSA for 15 minutes. Primary antibodies were diluted at 1:100 in staining buffer (1% BSA in PBS) and incubated for 2 hours at room temperature. Cells were washed three times (5 minutes each) in PBS. Secondary antibodies, TRITC-conjugated Donkey Anti-rabbit (711-025-152) was from Jackson immuno research, West Grove, PA was diluted at 1:100 in staining buffer and incubated for 60 minutes at room temperature. Cells were washed three times (5 minutes) in PBS and stained with 1 μg/mL DAPI (4’, 6-diamidino-2-phenylindole) in PBS for 5 minutes at room temperature. The cells were stored in PBS at 4°C until imaging was completed.
Cells were imaged using confocal laser scanning microscopy on a Nikon A1R using a galvano scanner and a 60× Apo-TIRF oil immersion objective. NIS Elements software form Nikon was used for recording the data.

## CC(C)=CCC/C(C)=C/COc1c2ccoc2cc2oc(=O)ccc12 [bergamottin]
[1]; Bergamottin 20 μM
  CDK2, normalized fold change after GAPDH calibration: 63
  CDK4, normalized fold change after GAPDH calibration: 90
  CDK6, normalized fold change after GAPDH calibration: 108
  Cyclin A, normalized fold change after GAPDH calibration: 86
  Cyclin B1, normalized fold change after GAPDH calibration: 52
  Cyclin D1, normalized fold change after GAPDH calibration: 106
  Cyclin D3, normalized fold change after GAPDH calibration: 55
  Cyclin E, normalized fold change after GAPDH calibration: 120
  Myt 1, normalized fold change after GAPDH calibration: 259
  P-Wee1, normalized fold change after GAPDH calibration: 80
  P-cdc2, normalized fold change after GAPDH calibration: 14
  P-histone H3, normalized fold change after GAPDH calibration: 130
  p21, normalized fold change after GAPDH calibration: 139
  p27, normalized fold change after GAPDH calibration: 158
[1]; Bergamottin 30 μM
  CDK2, normalized fold change after GAPDH calibration: 77
  CDK4, normalized fold change after GAPDH calibration: 81
  CDK6, normalized fold change after GAPDH calibration: 98
  Cyclin A, normalized fold change after GAPDH calibration: 58
  Cyclin B1, normalized fold change after GAPDH calibration: 42
  Cyclin D1, normalized fold change after GAPDH calibration: 110
  Cyclin D3, normalized fold change after GAPDH calibration: 49
  Cyclin E, normalized fold change after GAPDH calibration: 87
  Myt 1, normalized fold change after GAPDH calibration: 451
  P-Wee1, normalized fold change after GAPDH calibration: 87
  P-cdc2, normalized fold change after GAPDH calibration: 15
  P-histone H3, normalized fold change after GAPDH calibration: 152
  p21, normalized fold change after GAPDH calibration: 126
  p27, normalized fold change after GAPDH calibration: 143
[1]; low dose 5 and 10 μM, 96 hrs.
  CDK4 level (western blot): did not observe any significant change
  CDK6 level (western blot): did not observe any significant change
  cdc-2 phosphorylation (western blot): Decreased cdc-2 phosphorylation
  cyclin B1 level (western blot): lower
  cyclin D3 level (western blot): lower
MDAPCa2b cells
  DNA breaks (TUNEL, apoptosis): increased DNA breaks
PSA in MDAPCa2b cells
  PSA levels: significantly reduced PSA levels
LNCaP cells
  number of colonies: significantly reduced the number of colonies
PSA in LNCaP cells
  PSA levels: significantly reduced PSA levels
[2]
  active AR migration to the nucleus with DHT induction (confocal): significantly reduced
